Laboratory results taken from publication PMC7932537, “Quantitative profiling of protease specificity” (PLoS Computational Biology, 2021).

Tests used:
[1] = biological target: T1, MMP-2 (Homo sapiens, UniProt P08253); test: K(obs) of individual phage substrates (set of 1369); format: biochemical; settings: MMP2
T1 sequence (P08253 110-660): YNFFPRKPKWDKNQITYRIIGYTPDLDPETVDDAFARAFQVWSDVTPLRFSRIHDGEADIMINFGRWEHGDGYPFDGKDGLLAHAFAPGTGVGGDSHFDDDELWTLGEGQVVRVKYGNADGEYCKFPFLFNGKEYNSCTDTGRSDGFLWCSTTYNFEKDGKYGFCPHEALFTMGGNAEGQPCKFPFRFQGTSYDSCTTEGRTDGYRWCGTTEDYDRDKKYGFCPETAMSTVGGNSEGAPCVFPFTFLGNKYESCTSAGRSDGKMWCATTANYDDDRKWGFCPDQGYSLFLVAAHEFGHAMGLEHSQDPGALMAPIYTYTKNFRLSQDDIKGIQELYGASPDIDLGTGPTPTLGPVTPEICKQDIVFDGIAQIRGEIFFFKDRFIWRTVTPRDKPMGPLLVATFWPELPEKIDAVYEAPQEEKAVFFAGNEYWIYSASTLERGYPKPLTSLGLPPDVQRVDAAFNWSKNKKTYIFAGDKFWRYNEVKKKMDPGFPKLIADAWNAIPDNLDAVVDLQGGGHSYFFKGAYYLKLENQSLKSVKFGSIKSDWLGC

[2] = system: MMP-2; test: Substrate phage display with NGS: relative probability (RP) of P3-P1' tetramer clusters; format: biochemical, human; settings: MMP2;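 further: ratio of tetramer probability after protease selection to that in naive phage library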
[3] = biological target: MMP-9 (Homo sapiens, UniProt P14780); test: K(obs) of individual phage substrates (set of 1369); format: biochemical; settings: MMP9
Sequence of MMP-9 (P14780 94-707): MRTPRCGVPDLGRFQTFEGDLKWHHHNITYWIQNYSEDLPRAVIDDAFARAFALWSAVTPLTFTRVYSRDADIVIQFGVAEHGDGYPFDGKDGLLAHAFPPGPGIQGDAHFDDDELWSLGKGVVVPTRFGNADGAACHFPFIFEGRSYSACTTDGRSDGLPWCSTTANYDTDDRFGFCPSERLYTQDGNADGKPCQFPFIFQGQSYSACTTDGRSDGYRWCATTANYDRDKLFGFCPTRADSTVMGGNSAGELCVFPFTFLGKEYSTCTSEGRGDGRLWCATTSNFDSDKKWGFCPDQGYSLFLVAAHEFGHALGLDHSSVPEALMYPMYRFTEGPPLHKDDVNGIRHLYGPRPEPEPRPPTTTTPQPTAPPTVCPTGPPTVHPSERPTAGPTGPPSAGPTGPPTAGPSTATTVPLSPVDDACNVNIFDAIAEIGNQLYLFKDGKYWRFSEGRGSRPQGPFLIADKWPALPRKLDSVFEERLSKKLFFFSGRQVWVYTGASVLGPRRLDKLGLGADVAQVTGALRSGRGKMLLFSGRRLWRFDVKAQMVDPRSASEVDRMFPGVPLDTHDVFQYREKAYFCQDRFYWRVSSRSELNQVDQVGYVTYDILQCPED

[4] = individual phage substrates, set of 1369 peptides, cleavage position marked by hyphen in sequence
[5] = RP of the P3-P1' tetramer contained in the substrate (substrate phage display with NGS)
[6] = individual phage substrates, set of 1369 peptides, hyphen in sequence marks cleavage position
[7] = individual phage substrate of the set of 1369 peptides, cleavage position marked by '-'
[8] = RP of the P3-P1' tetramer contained in the substrate
[9] = individual phage substrate of the set of 1369 peptides, dash in the sequence marks the cleavage position

Substance | Kobs [1, 4] | Kobs [3, 6] | Kobs [1, 7] | Kobs [3, 9] | relative probability (RP) [2, 5] | relative probability (RP) [2, 8]
SGPFR-LNWTA | 0 M⁻¹ s⁻¹ | 1373.05 M⁻¹ s⁻¹ |  |  | 16.3818 | 
RNPEW-MTASG | 2996.69 M⁻¹ s⁻¹ | 4763.33 M⁻¹ s⁻¹ |  |  | 12.3271 | 
TTYMS-LTASG |  |  | 0 M⁻¹ s⁻¹ | 0 M⁻¹ s⁻¹ |  | 0.07249
EHAWN-LTASG |  |  | 2218.08 M⁻¹ s⁻¹ | 2280.5 M⁻¹ s⁻¹ |  | 14.0049
SGAHG-LLTTA |  |  | 1112.44 M⁻¹ s⁻¹ | 142.481 M⁻¹ s⁻¹ |  | 23.6336
GCPHM-MTASG | 654.784 M⁻¹ s⁻¹ | 1327.88 M⁻¹ s⁻¹ |  |  | 14.968 | 
YEPRN-VTASG | 12792.1 M⁻¹ s⁻¹ | 10866.7 M⁻¹ s⁻¹ |  |  | 26.6015 | 
GIFWH-LRTAS | 0 M⁻¹ s⁻¹ | 0 M⁻¹ s⁻¹ |  |  | 0 | 
GIAHQ-LKTAS | 726.013 M⁻¹ s⁻¹ | 201.585 M⁻¹ s⁻¹ |  |  | 4.1 | 
GRASH-LMTAS | 4470.66 M⁻¹ s⁻¹ | 726.013 M⁻¹ s⁻¹ |  |  | 19.8208 | 
ERFSH-LTASG |  |  | 2344.36 M⁻¹ s⁻¹ | 231.616 M⁻¹ s⁻¹ |  | 16.5216
SIAFA-LTASG | 12792.1 M⁻¹ s⁻¹ | 12792.1 M⁻¹ s⁻¹ |  |  | 17.8812 | 
GSVNY-LVTAS | 0 M⁻¹ s⁻¹ | 0 M⁻¹ s⁻¹ |  |  | 8.427 | 
SGPAW-MKGTA | 9740.44 M⁻¹ s⁻¹ | 7386.83 M⁻¹ s⁻¹ |  |  | 34.3571 | 
GIPRP-VMTAS |  |  | 6688.74 M⁻¹ s⁻¹ | 6131.32 M⁻¹ s⁻¹ |  | 29.4989
GVVLN-LETAS |  |  | 1196.62 M⁻¹ s⁻¹ | 1465.65 M⁻¹ s⁻¹ |  | 18.9065
GTPYG-LVTAS |  |  | 12792.1 M⁻¹ s⁻¹ | 12792.1 M⁻¹ s⁻¹ |  | 32.9966
TAPKL-LTASG |  |  | 7815.03 M⁻¹ s⁻¹ | 12792.1 M⁻¹ s⁻¹ |  | 15.3454
RAPLH-MTASG |  |  | 2916.17 M⁻¹ s⁻¹ | 12792.1 M⁻¹ s⁻¹ |  | 30.0095
GVHFH-LITAS |  |  | 0 M⁻¹ s⁻¹ | 0 M⁻¹ s⁻¹ |  | 0.09413
GLAWG-LYTAS | 2916.17 M⁻¹ s⁻¹ | 2409.72 M⁻¹ s⁻¹ |  |  | 17.7408 | 
GVLYH-LQTAS | 171.876 M⁻¹ s⁻¹ | 292.668 M⁻¹ s⁻¹ |  |  | 4.529 | 

Substance | Kobs [1, 4] | Kobs [3, 6] | Kobs [1, 7] | Kobs [3, 9] | relative probability (RP) [2, 5] | relative probability (RP) [2, 8]
FPGRH-LTASG |  |  | 1239.69 M⁻¹ s⁻¹ | 484.315 M⁻¹ s⁻¹ |  | 3.598
GWPRE-LKTAS |  |  | 12792.1 M⁻¹ s⁻¹ | 12792.1 M⁻¹ s⁻¹ |  | 31.9513
GEFAA-LQTAS | 2615.58 M⁻¹ s⁻¹ | 323.705 M⁻¹ s⁻¹ |  |  | 18.8584 | 
SGVRH-LINTA |  |  | 1763.55 M⁻¹ s⁻¹ | 8321.48 M⁻¹ s⁻¹ |  | 25.4239
GFPLM-LTASG |  |  | 9740.44 M⁻¹ s⁻¹ | 12792.1 M⁻¹ s⁻¹ |  | 25.0435
GYARL-LRTAS |  |  | 484.315 M⁻¹ s⁻¹ | 690.17 M⁻¹ s⁻¹ |  | 1.104
GYPRA-FSTAS |  |  | 12792.1 M⁻¹ s⁻¹ | 12792.1 M⁻¹ s⁻¹ |  | 31.8957
GTLMG-LYTAS |  |  | 7015.91 M⁻¹ s⁻¹ | 171.876 M⁻¹ s⁻¹ |  | 28.5499
TSFRM-LTASG | 0 M⁻¹ s⁻¹ | 0 M⁻¹ s⁻¹ |  |  | 0.2112 | 
APYNH-LTASG |  |  | 1327.88 M⁻¹ s⁻¹ | 990.764 M⁻¹ s⁻¹ |  | 3.693
QPLSW-VTASG |  |  | 12792.1 M⁻¹ s⁻¹ | 4922.1 M⁻¹ s⁻¹ |  | 11.7463
SGPRA-LKGTA |  |  | 12792.1 M⁻¹ s⁻¹ | 12792.1 M⁻¹ s⁻¹ |  | 35.2345
IPAFN-LTASG | 10866.7 M⁻¹ s⁻¹ | 12792.1 M⁻¹ s⁻¹ |  |  | 16.2959 | 
ASTLH-LTASG | 0 M⁻¹ s⁻¹ | 56.119 M⁻¹ s⁻¹ |  |  | 2.471 | 
SGVRF-LKGTA | 5269.78 M⁻¹ s⁻¹ | 12792.1 M⁻¹ s⁻¹ |  |  | 15.0438 | 
HAPRG-STASG |  |  | 7015.91 M⁻¹ s⁻¹ | 7386.83 M⁻¹ s⁻¹ |  | 16.3331
SGAFN-LYSTA |  |  | 12792.1 M⁻¹ s⁻¹ | 12792.1 M⁻¹ s⁻¹ |  | 16.2959
SGPMA-LSRTA |  |  | 8321.48 M⁻¹ s⁻¹ | 12792.1 M⁻¹ s⁻¹ |  | 34.1737
TTPYH-ITASG |  |  | 4922.1 M⁻¹ s⁻¹ | 12792.1 M⁻¹ s⁻¹ |  | 15.3574
GRLRN-LVTAS |  |  | 5461.43 M⁻¹ s⁻¹ | 1925.41 M⁻¹ s⁻¹ |  | 27.1336
HRQQN-LTASG | 912.511 M⁻¹ s⁻¹ | 0 M⁻¹ s⁻¹ |  |  | 4.247 | 

Second part, led by results:

Kobs [1, 4] | Kobs [3, 6] | Kobs [1, 7] | Kobs [3, 9] | Substance | relative probability (RP) [2, 5] | relative probability (RP) [2, 8]
5269.78 M⁻¹ s⁻¹ | 5461.43 M⁻¹ s⁻¹ |  |  | LTPRY-WTASG | 20.9965 | 
 |  | 6131.32 M⁻¹ s⁻¹ | 12792.1 M⁻¹ s⁻¹ | SGPVN-LISTA |  | 34.508
 |  | 12792.1 M⁻¹ s⁻¹ | 12792.1 M⁻¹ s⁻¹ | WLPRA-VTASG |  | 28.3444
 |  | 323.705 M⁻¹ s⁻¹ | 171.876 M⁻¹ s⁻¹ | GVYAH-LLTAS |  | 18.7061
355.093 M⁻¹ s⁻¹ | 231.616 M⁻¹ s⁻¹ |  |  | GLGLN-LTASG | 0.5789 | 
4763.33 M⁻¹ s⁻¹ | 12792.1 M⁻¹ s⁻¹ |  |  | GGPIP-LWTAS | 33.1236 | 
 |  | 12792.1 M⁻¹ s⁻¹ | 12792.1 M⁻¹ s⁻¹ | SGPRS-LYTTA |  | 33.3704
 |  | 8941.32 M⁻¹ s⁻¹ | 0 M⁻¹ s⁻¹ | VIYGN-LTASG |  | 24.0019
912.511 M⁻¹ s⁻¹ | 484.315 M⁻¹ s⁻¹ |  |  | SGRRN-LMNTA | 6.1579 | 
 |  | 12792.1 M⁻¹ s⁻¹ | 1112.44 M⁻¹ s⁻¹ | TVVAY-ITASG |  | 18.7179
 |  | 1925.41 M⁻¹ s⁻¹ | 323.705 M⁻¹ s⁻¹ | VVLMG-LTASG |  | 28.5499
 |  | 2615.58 M⁻¹ s⁻¹ | 4763.33 M⁻¹ s⁻¹ | KLGRA-LTASG |  | 7.944
8941.32 M⁻¹ s⁻¹ | 9740.44 M⁻¹ s⁻¹ |  |  | VKAYN-LTASG | 20.8713 | 
 |  | 12792.1 M⁻¹ s⁻¹ | 8941.32 M⁻¹ s⁻¹ | SGPRG-QVFTA |  | 29.4864
 |  | 12792.1 M⁻¹ s⁻¹ | 10866.7 M⁻¹ s⁻¹ | VRPRP-FTASG |  | 32.5323
 |  | 551.253 M⁻¹ s⁻¹ | 113.394 M⁻¹ s⁻¹ | GSGRN-LRLQT |  | 8.812
27.918 M⁻¹ s⁻¹ | 0 M⁻¹ s⁻¹ |  |  | HDYFN-LTASG | 0 | 
2916.17 M⁻¹ s⁻¹ | 1112.44 M⁻¹ s⁻¹ |  |  | RLLLN-MTASG | 13.7728 | 
5461.43 M⁻¹ s⁻¹ | 0 M⁻¹ s⁻¹ |  |  | VPWGN-LTASG | 14.7295 | 
 |  | 12792.1 M⁻¹ s⁻¹ | 0 M⁻¹ s⁻¹ | MSLGY-LTASG |  | 24.8925
799.117 M⁻¹ s⁻¹ | 619.843 M⁻¹ s⁻¹ |  |  | YNWRH-LTASG | 0.4087 | 
231.616 M⁻¹ s⁻¹ | 142.481 M⁻¹ s⁻¹ |  |  | GKVSE-LITAS | 24.0996 | 
1071.29 M⁻¹ s⁻¹ | 836.403 M⁻¹ s⁻¹ |  |  | GWWMN-LTASG | 0 | 
2097.28 M⁻¹ s⁻¹ | 762.325 M⁻¹ s⁻¹ |  |  | SGYAN-MRRTA | 22.6837 | 
12792.1 M⁻¹ s⁻¹ | 12792.1 M⁻¹ s⁻¹ |  |  | GGPSM-LTASG | 33.0235 | 
 |  | 654.784 M⁻¹ s⁻¹ | 2916.17 M⁻¹ s⁻¹ | GFAWS-LHTAS |  | 7.006
 |  | 12792.1 M⁻¹ s⁻¹ | 12792.1 M⁻¹ s⁻¹ | QEPRN-ITASG |  | 31.9621
